Laboratory results published in patent US8207139B2, “Function of GPR4 in vascular inflammatory response to acidosis and related methods” (priority 2009, dated 2012).
Entries after “also recorded” stand apart in the source; their conditions may differ.

Key:
[1] = test system: acidosis/GPR4-induced HUVEC cell adhesion; experiment: HUVEC-U937 monocyte cell adhesion assay; type: cell-based, human; details: HUVEC cells treated with acidic pH, attachment of U937 monocytes as readout
Description: Cell adhesion assay: To examine the adhesion of HUVEC endothelial cells and to model the interaction between endothelium and immune cells, the HUVEC-U937 monocyte adhesion assay was used as a functional readout. […] In brief, HUVEC endothelial cells were cultured in a 24-well plate to form a confluent monolayer, and treated with EGM-2/HEM media at various pHs for 5 to 15 hours. After the pH treatment, HUVEC cells were washed once with DMEM medium (pH 7.4), and then U937 monocytic cells resuspended in DMEM with 10% fetal bovine serum (FBS) were added to the HUVEC monolayer to allow adhesion for 1 hour at pH 7.4. Non-adherent cells were removed by gently washing several times with DMEM medium.
Effects on HUVEC cell adhesion: HUVEC cells with GPR4 siRNA or control siRNA were treated with different pHs, and the U937-HUVEC cell adhesion assay was performed.

[2] = test system: acidosis/GPR4-induced HUVEC cell adhesion; experiment: HUVEC-U937 monocyte cell adhesion assay; type: cell-based, human; details: treatment with cAMP pathway activators, attachment of U937 monocytes as readout

| Compound | effect on acidosis/GPR4-induced HUVEC cell adhesion [1] | effect on adhesion of HUVEC cells [2] |
| --- | --- | --- |
| C[C@H]1O[C@@H](n2cnc3c(N)ncnc32)C[C@@H]1O [2′,5′-dideoxyadenosine] | reduced; also recorded: abolishes; also recorded: diminishes | – |
| CO[C@@H]1[C@@H]2OP(=O)(O)OC[C@H]2O[C@H]1n1c(Sc2ccc(Cl)cc2)nc2c(N)ncnc21 [8-CPT-2Me-cAMP] | – | increases |
| O=S(=O)(NCCNC/C=C/c1ccc(Br)cc1)c1cccc2cnccc12 [H-89] | did not affect; also recorded: does not affect | – |
| Nc1ncnc2c1ncn2C1CCCO1 (centres unmarked) [SQ 22536] | abolishes; also recorded: reduces | – |
| pertussis toxin | – | enhanced; also recorded: increases |
